Experimental findings from US9340577B2, “HLA binding motifs and peptides and their uses” (priority 1992, dated 2016) are described below.

Where two headings read alike, the source gives them in different places. No end group written: not given here.

Common to all, as to experiment: biochemical
One experiment deals with DRB1*0301 (Homo sapiens, UniProt P01903+P01911, A100K/A102G/A103R/A169T/F55Y/I96L/K41T/L162R/M171V/P40S/Q125H/Q178H/Q39Y/R42S/S66N/T106N/T262R/W38E/Y61H). The class given is binding.
Chain of DRB1*0301 (P01903 26-254 limits assumed, other chains not shown): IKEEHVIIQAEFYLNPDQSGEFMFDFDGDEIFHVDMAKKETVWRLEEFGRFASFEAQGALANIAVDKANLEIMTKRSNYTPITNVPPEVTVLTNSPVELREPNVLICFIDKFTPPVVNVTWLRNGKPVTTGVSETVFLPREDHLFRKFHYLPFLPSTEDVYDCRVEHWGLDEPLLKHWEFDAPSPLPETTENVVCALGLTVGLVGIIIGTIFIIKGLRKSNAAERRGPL
The next experiment addresses DRB1*1201 (Homo sapiens, UniProt P01903+P01911, A100R/A169T/D57E/D86V/F55L/H45Y/K41T/L162R/M171V/P40S/Q125H/Q178H/Q39Y/Q99D/R42G/S66L/T262R/V114A/V67L/W38E/Y59H/Y61H/Y89S). The class given is binding.
Another experiment concerns the target DR4w4 (DRB1*0401) (Homo sapiens, UniProt P01903+P01911, A100K/A169T/F76Y/I96L/K127E/L162R/M171V/N62H/P40V/Q125Y/R42H/S133A/S149N/S66Y/V115G/V209L/W38E). The class given is binding.
The next experiment deals with DRB1*1501 (Homo sapiens, UniProt P01903+P01911). The format is binding.
A further experiment deals with DRB1*0405 (Homo sapiens, UniProt P01903+P01911, A100R/A169T/D86S/F76Y/I96L/K127E/L162R/M171V/N62H/P40V/Q125Y/R42H/S133A/S149N/S66Y/V115G/V209L/W38E). The class given is binding.
The next experiment concerns the target DRB1*0901 (Homo sapiens, UniProt P01903+P01911, A100R/A103E/D57H/D86V/F55Y/F60I/F76Y/I96F/K127E/L162R/M171V/P40D/Q125H/Q99R/R33Q/R42F/S133A/S66N/T210M/V115G/W38K/Y107V/Y59G/Y89S). The format is binding.
The target of a further experiment is DR7 (DRB1*0701) (Homo sapiens, UniProt P01903+P01911, A100R/A102G/A103Q/D57E/D86V/E43K/F76Y/K127E/L162R/M171V/P40G/Q125H/Q99D/R33Q/R42Y/R54Q/S133A/S66F/T210M/V115G/Y107V/Y59L/Y89S). The class given is binding.
In another experiment the target is DRB1*0802 (Homo sapiens, UniProt P01903+P01911, A100R/A103L/A169T/F76Y/H45Y/I96F/K41T/L162R/M171V/P40S/Q125H/Q178H/Q39Y/Q99D/R218S/R42G/S66Y/V115G/W38E). The class given is binding.
A further experiment concerns the target DRB1*1101 (Homo sapiens, UniProt P01903+P01911, A100R/A169T/A87E/I96F/K41T/L162R/M171V/P40S/Q125H/Q178H/Q39Y/Q99D/R42S/S66Y/T262R/V115G/W38E).
In the next experiment the target is DRB5*0101 (Homo sapiens, UniProt P01903+Q30154).
The next experiment deals with DRB1*1302 (Homo sapiens, UniProt P01903+P01911, A100E/A169T/K41T/L162R/M171V/P40S/Q125H/Q178H/Q39Y/Q99D/R42S/S66N/T262R/V115G/W38E/Y61H). The format is binding.
Chain of DRB1*1302 (P01903 26-254 limits assumed, other chains not shown): as above
The target of the next experiment is DR1 (DRB1*0101) (Homo sapiens, UniProt P01903+P01911, A100R/D57E/F55L/F60I/F76Y/I96L/L162R/M171V/P40L/Q125E/R42F/V115G/Y59C). The class given is binding.
In the next experiment the target is DRB4*0101 (Homo sapiens, UniProt P01903+P13762, G164S). The format is binding.

Chain of DRB1*1101 (P01903 26-254 limits assumed, other chains not shown): as above

With `CC(C)C[C@H](NC(=O)[C@@H](NC(=O)[C@H](Cc1c[nH]c2ccccc12)NC(=O)[C@H](CC(=O)O)NC(=O)[C@H](CCC(=O)O)NC(=O)[C@@H](NC(=O)[C@H](CCCCN)NC(=O)[C@H](Cc1ccc(O)cc1)NC(=O)[C@H](CCCNC(=N)N)NC(=O)[C@H](CO)NC(=O)[C@@H](N)CCC(N)=O)[C@@H](C)O)[C@@H](C)O)C(=O)N[C@@H](CCC(N)=O)C(=O)N[C@@H](CC(=O)O)C(=O)N[C@H](C(=O)N[C@@H](CS)C(=O)O)[C@@H](C)O` [Peptide 90.0179], the IC50 on DRB1*0301 was 335 nM; at DRB1*1201, 193 nM; on DR4w4 (DRB1*0401), 71 nM; at DRB1*1501, 345 nM; at DRB1*0405, 1590 nM; at DRB1*0901 it was 1970 nM. For the same compound, the IC50 on DR7 (DRB1*0701) was 6500 nM; on DRB1*0802 it was 585 nM; against DRB1*1101, 2090 nM; against DRB5*0101, over 20000 nM; on DRB1*1302, 71 nM.

On to AQEVHNDAQVLHVLK [Peptide 90.0047], for which the IC50 is 21 nM against DRB1*0301; over 20000 nM against DRB1*1201; 4530 nM against DR4w4 (DRB1*0401); 2540 nM against DRB1*1501; over 20000 nM against DRB1*0405; 10200 nM against DRB1*0901. For the same compound, the IC50 on DR7 (DRB1*0701) is 7800 nM; on DRB1*1101 (Binding affinity DRB1 *1101) it was 10700 nM; at DRB5*0101 (Binding affinity DRB5 *0101) it was over 20000 nM; against DR1 (DRB1*0101), 407 nM.

On to DDRWPYLHSRLVVFT [Peptide 89.0058], for which the IC50 against DRB1*0301 is over 20000 nM; against DRB1*1201, 297 nM; against DR4w4 (DRB1*0401), over 20000 nM; at DRB1*1501 it was 284 nM; on DRB1*0901, 158 nM; against DR7 (DRB1*0701), 68 nM. In addition, the IC50 against DRB1*0802 is 1700 nM; against DRB4*0101 it was 297 nM; on DRB5*0101 (Binding affinity DRB5 *0101) it was over 20000 nM; at DRB1*1302, 2190 nM; against DR1 (DRB1*0101), 29 nM.

Regarding DRGVLILLLIRFKCG [Peptide 89.0099], the IC50 against DRB1*0301 worked out at 470 nM; against DRB1*1201 it was 711 nM; at DR4w4 (DRB1*0401), 1480 nM; at DRB1*0405, 3340 nM; on DR7 (DRB1*0701), 384 nM; against DRB1*0802, 4730 nM. Further, the IC50 on DRB1*1101 (Binding affinity DRB1 *1101) stood at 1630 nM; at DRB5*0101 (Binding affinity DRB5 *0101), 83 nM; at DR1 (DRB1*0101), 20 nM.

In the case of GKSLFGMSLMKFLQG [Peptide 89.0019], the IC50 was found to be 2740 nM on DRB1*0301; 80 nM against DRB1*1201; 468 nM against DR4w4 (DRB1*0401); 2780 nM against DRB1*1501; 148 nM against DRB1*0901; 16 nM at DR7 (DRB1*0701). Further, the IC50 against DRB1*0802 worked out at 704 nM; on DRB4*0101 it was 369 nM; on DRB1*1101 (Binding affinity DRB1 *1101), 1360 nM; at DRB5*0101 (Binding affinity DRB5 *0101), 513 nM; against DRB1*1302, 2030 nM; against DR1 (DRB1*0101), 17 nM.

As to ISEVYGDTPEWIQRQ [Peptide 90.0035], the IC50 on DRB1*0301 was 50 nM; against DRB1*1201, over 20000 nM; on DR4w4 (DRB1*0401) it was over 20000 nM; on DRB1*1501, over 20000 nM; against DRB1*0405, 12800 nM; against DRB1*0901 it was over 20000 nM. Further, the IC50 against DR7 (DRB1*0701) is 6870 nM; at DRB1*0802, over 20000 nM; at DRB1*1101 (Binding affinity DRB1 *1101), over 20000 nM; at DRB5*0101 (Binding affinity DRB5 *0101), over 20000 nM; against DRB1*1302, 6.9 nM; at DR1 (DRB1*0101), over 20000 nM.

For the compound KIGMLDDATVPCWNY [Peptide 90.0040], the IC50 is 160 nM against DRB1*0301; 12700 nM against DRB1*1201; 490 nM against DR4w4 (DRB1*0401); over 20000 nM against DRB1*1501; over 20000 nM against DRB1*0405; over 20000 nM on DRB1*0901. The IC50 against DR7 (DRB1*0701) was over 20000 nM; at DRB1*0802, over 20000 nM; on DRB1*1101 (Binding affinity DRB1 *1101), over 20000 nM; at DRB5*0101 (Binding affinity DRB5 *0101) it was over 20000 nM; on DRB1*1302, over 20000 nM; at DR1 (DRB1*0101), 4430 nM.

Regarding KTLIKPATLYAHIQC [Peptide 89.0083], the IC50 against DRB1*0301 was 1220 nM; against DRB1*1201 it was 422 nM; against DRB1*1501 it was 654 nM; on DRB1*0405, 841 nM; against DR7 (DRB1*0701) it was 308 nM; on DRB1*0802 it was 231 nM. In addition, the IC50 came out at 51 nM against DRB4*0101, 35 nM on DRB1*1101 (Binding affinity DRB1 *1101), 5230 nM on DRB5*0101 (Binding affinity DRB5 *0101) and 60 nM on DR1 (DRB1*0101).

In the case of LKVLIQPYSIYAHLQ [Peptide 89.0098], the IC50 on DRB1*0301 worked out at 191 nM; against DRB1*1201 it was 237 nM; against DR4w4 (DRB1*0401) it was 524 nM; against DRB1*1501 it was 79 nM; against DRB1*0405, 2240 nM; against DRB1*0901, 12800 nM. The IC50 against DR7 (DRB1*0701) was determined as 26 nM; on DRB1*0802 it was 4770 nM; on DRB1*1101 (Binding affinity DRB1 *1101) it was 681 nM; on DRB5*0101 (Binding affinity DRB5 *0101), 993 nM; on DRB1*1302, 677 nM.

Consider MNYVVWDSIYYITET [Peptide 90.0214], for which the IC50 against DRB1*0301 was determined as 151 nM; on DRB1*1201, 1140 nM; on DRB1*1501, 3090 nM; at DRB1*0405, 452 nM; at DRB1*0901 it was 888 nM; against DR7 (DRB1*0701) it was 55 nM. Moreover, the IC50 is over 20000 nM on DRB1*0802; 1620 nM on DRB1*1101 (Binding affinity DRB1 *1101); 18300 nM at DRB5*0101 (Binding affinity DRB5 *0101); 17 nM against DRB1*1302; 2610 nM against DR1 (DRB1*0101).

With PHAFPFDKNGNPVYE [Peptide 90.0106], the IC50 against DRB1*0301 is 930 nM; against DRB1*1201, 671 nM; against DRB1*1501, 2790 nM; against DRB1*0405 it was 7190 nM; against DR7 (DRB1*0701), 7120 nM; against DRB1*0802, over 20000 nM. The IC50 at DRB1*1101 (Binding affinity DRB1 *1101) was over 20000 nM; at DRB5*0101 (Binding affinity DRB5 *0101) it was over 20000 nM; at DRB1*1302 it was 1390 nM; at DR1 (DRB1*0101), 517 nM.

Consider QQTVCREGVKRRLIL [Peptide 90.0129], for which the IC50 against DRB1*0301 is 711 nM; against DRB1*1201, 12700 nM; against DR4w4 (DRB1*0401) it was 82 nM; on DRB1*1501 it was over 20000 nM; on DRB1*0901, 3920 nM; against DR7 (DRB1*0701) it was over 20000 nM. Also, the IC50 against DRB1*0802 was 3740 nM; on DRB4*0101 it was 11 nM; at DRB1*1101 (Binding affinity DRB1 *1101) it was 1020 nM; on DRB5*0101, over 20000 nM; on DRB1*1302, over 20000 nM; against DR1 (DRB1*0101), 5890 nM.

Consider RETIEKLLSKLLCVS [Peptide 89.0006], for which the IC50 at DRB1*0301 was 13000 nM; on DRB1*1201 it was 523 nM; against DR4w4 (DRB1*0401), over 20000 nM; against DRB1*1501, 232 nM; at DRB1*0405 it was 6170 nM; against DRB1*0901, 6480 nM. For the same compound, the IC50 at DR7 (DRB1*0701) came to 187 nM; against DRB1*0802 it was 652 nM; on DRB1*1101 (Binding affinity DRB1 *1101) it was 715 nM; on DRB5*0101 (Binding affinity DRB5 *0101) it was 7070 nM; at DRB1*1302, 600 nM; against DR1 (DRB1*0101), 199 nM.

As to RYRFQKYKTLFVDVT [Peptide 90.0019], the IC50 amounted to 5630 nM against DRB1*0301; 4510 nM on DRB1*1201; 623 nM against DR4w4 (DRB1*0401); 590 nM against DRB1*1501; 226 nM on DRB1*0901; 43 nM on DR7 (DRB1*0701). Further, the IC50 against DRB1*0802 came to 407 nM; against DRB4*0101, 4110 nM; at DRB1*1101 (Binding affinity DRB1 *1101), 728 nM; at DRB1*1302, 2170 nM; against DR1 (DRB1*0101), 74 nM.
